Measured values from publication PMC10825183 (Nature Communications, 2024).
Several values for one entry are separate records, joined by “and”; a condition that tells them apart may be missing. Equal entries are not always repeated. Where two headings read alike, the source gives them in different places.

What was measured:
human HCN2 CNBD ΔDE = biological target: T1, human HCN2 CNBD ΔDE (Homo sapiens, UniProt Q9UL51); assay: Isothermal titration calorimetry (ITC), CNBD ΔDE; settings: cAMP titrated into 20 µM CNBD, 25 °C, mean ± SEM, n = 3
T1 sequence (Q9UL51 521-667): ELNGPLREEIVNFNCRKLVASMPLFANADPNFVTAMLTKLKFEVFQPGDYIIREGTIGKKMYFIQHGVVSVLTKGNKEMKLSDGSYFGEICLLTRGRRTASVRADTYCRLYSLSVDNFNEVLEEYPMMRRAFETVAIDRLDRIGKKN

[1] = biological target: isolated C-linker and CNBD; settings: ref Chow et al (2012), cited from earlier work
rbHCN4 ΔDE’ (1-723) = rbHCN4 ΔDE’ (1-723) (Oryctolagus cuniculus, UniProt Q9TV66)
rbHCN4 D750A = rbHCN4 D750A (Oryctolagus cuniculus, UniProt Q9TV66, D750A)
[2] = tested on: native If current in sinoatrial node myocytes; settings: read-out: affinity value for cAMP; ref DiFrancesco and Tortora, Nature, 1991; cited from earlier work
human HCN2 CNBD ΔDE’ = biological target: T2, human HCN2 CNBD ΔDE’ (Homo sapiens, UniProt Q9UL51); assay: Isothermal titration calorimetry (ITC), CNBD ΔDE’
T2 sequence (Q9UL51 521-672): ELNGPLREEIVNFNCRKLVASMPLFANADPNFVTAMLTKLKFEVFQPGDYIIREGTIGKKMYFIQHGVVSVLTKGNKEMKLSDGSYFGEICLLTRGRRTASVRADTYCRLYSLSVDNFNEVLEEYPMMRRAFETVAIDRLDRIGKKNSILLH

rbHCN4 ΔC-term (1-758) = rbHCN4 ΔC-term (1-758) (Oryctolagus cuniculus, UniProt Q9TV66); settings: mean ± SEM
HCN4 = settings: cited from earlier work
hHCN2 CNBD R662A [3] = biological target: T3, hHCN2 CNBD R662A (Homo sapiens, UniProt Q9UL51, R662A); settings: cAMP titrant
rbHCN4 ΔDE (1-718) = rbHCN4 ΔDE (1-718) (Oryctolagus cuniculus, UniProt Q9TV66)
hHCN2 CNBD D698A = hHCN2 CNBD D698A (Homo sapiens, UniProt Q9UL51, D698A); assay: biochemical
hHCN2 CNBD R662A [4] = biological target: T3, hHCN2 CNBD R662A; assay: biochemical
human HCN2 CNBD ΔE = biological target: T4, human HCN2 CNBD ΔE (Homo sapiens, UniProt Q9UL51); assay: Isothermal titration calorimetry (ITC), CNBD ΔE; type: binding; settings: mean ± SEM, n = 3
T4 sequence (Q9UL51 521-681): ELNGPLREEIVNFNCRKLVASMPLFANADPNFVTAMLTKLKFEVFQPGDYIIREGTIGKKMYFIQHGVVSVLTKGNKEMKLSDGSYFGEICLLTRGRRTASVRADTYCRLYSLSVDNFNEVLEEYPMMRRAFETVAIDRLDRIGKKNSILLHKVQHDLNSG

[5] = tested on: full-length HCN2 with a C-linker and CNBD from HCN4; settings: ref Xu et al, JBC, 2010; cited from earlier work
[6] = 5 µM cAMP in pipette, mean ± SEM
[7] = Hill fit of shift in V1/2 vs cAMP concentration
[8] = KD of individual experiments (source data Fig. 4e), cAMP titrant, unit inferred
[9] = KD, cAMP titrated into 20 µM CNBD, 25 °C, mean ± SEM, n = 3

Chain of rbHCN4 ΔC-term (1-758) (Q9TV66 1-758, stated change not applied): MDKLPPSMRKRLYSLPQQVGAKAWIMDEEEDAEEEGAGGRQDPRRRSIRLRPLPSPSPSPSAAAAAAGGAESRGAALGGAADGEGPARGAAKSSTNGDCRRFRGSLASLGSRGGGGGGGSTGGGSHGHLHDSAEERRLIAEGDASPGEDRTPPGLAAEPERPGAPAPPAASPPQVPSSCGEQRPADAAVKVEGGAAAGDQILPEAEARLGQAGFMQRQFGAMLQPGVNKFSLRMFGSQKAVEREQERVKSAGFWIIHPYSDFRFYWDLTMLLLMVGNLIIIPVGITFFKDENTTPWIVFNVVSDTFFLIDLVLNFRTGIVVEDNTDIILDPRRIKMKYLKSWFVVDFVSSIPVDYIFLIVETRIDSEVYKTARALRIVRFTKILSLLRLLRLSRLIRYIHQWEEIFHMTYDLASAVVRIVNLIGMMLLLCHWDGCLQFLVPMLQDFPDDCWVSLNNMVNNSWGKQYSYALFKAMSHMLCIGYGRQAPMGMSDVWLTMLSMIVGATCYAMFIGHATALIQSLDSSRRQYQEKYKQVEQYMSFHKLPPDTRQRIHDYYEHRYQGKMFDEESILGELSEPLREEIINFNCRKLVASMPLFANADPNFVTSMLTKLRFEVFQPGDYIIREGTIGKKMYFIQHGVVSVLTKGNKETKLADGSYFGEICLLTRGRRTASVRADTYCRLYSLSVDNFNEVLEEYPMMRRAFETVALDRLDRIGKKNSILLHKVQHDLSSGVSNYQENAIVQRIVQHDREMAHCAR
Chain of rbHCN4 D750A (Q9TV66 whole entry D750A): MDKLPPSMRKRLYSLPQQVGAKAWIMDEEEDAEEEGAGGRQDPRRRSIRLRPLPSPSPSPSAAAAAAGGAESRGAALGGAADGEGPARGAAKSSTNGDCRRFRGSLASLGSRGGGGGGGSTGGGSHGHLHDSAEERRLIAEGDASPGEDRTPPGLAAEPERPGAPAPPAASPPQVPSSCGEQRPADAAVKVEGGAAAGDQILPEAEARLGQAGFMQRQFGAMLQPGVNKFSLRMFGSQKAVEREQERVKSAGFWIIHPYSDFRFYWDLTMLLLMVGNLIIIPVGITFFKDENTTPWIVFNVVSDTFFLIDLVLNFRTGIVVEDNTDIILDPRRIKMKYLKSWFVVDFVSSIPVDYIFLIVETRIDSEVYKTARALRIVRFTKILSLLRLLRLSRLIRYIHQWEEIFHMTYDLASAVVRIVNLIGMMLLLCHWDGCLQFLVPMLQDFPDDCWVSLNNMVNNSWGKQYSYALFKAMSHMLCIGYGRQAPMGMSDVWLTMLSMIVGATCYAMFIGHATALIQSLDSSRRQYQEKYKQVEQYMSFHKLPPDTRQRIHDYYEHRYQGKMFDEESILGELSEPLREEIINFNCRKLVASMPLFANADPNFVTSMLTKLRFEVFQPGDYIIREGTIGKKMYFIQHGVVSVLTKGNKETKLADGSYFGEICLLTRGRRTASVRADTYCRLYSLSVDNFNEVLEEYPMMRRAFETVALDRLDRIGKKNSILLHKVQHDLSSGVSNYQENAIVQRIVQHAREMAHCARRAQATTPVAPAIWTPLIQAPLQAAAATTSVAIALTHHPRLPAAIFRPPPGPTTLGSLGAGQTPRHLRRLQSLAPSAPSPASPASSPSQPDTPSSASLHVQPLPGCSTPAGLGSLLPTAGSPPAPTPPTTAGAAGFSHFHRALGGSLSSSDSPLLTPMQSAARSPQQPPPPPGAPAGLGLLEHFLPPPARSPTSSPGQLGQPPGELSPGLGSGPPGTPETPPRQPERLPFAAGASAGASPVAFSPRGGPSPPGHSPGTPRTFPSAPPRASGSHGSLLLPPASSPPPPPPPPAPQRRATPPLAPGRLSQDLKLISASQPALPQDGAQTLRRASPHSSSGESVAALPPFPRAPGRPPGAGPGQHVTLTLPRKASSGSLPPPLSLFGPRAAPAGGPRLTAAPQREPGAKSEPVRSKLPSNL
Chain of rbHCN4 ΔDE’ (1-723) (Q9TV66 1-723, stated change not applied): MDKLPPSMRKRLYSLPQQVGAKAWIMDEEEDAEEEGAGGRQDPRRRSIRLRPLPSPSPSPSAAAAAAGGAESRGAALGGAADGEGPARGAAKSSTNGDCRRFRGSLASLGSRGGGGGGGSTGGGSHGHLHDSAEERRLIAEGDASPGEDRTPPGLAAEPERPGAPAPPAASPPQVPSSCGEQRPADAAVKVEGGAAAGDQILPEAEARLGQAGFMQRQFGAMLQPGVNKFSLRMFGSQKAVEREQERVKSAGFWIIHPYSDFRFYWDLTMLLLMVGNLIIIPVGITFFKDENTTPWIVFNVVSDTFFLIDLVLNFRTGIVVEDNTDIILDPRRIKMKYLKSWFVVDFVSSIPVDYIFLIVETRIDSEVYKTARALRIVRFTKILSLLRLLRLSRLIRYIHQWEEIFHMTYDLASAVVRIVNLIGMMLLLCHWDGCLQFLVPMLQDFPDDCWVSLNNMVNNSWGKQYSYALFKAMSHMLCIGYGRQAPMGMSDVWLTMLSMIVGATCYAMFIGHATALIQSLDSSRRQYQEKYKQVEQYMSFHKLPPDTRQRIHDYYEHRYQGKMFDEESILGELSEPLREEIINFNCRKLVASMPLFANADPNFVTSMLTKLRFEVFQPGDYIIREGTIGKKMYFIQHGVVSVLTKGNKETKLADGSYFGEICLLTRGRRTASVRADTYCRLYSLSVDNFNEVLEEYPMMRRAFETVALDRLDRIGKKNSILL
T3 sequence (Q9UL51 521-706 R662A): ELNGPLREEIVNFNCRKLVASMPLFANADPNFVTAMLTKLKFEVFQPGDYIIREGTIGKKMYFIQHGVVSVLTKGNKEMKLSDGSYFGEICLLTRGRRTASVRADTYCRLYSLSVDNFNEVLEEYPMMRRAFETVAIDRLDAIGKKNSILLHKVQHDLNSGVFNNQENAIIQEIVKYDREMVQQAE
Chain of hHCN2 CNBD D698A (Q9UL51 521-706 D698A): as the sequence (Q9UL51 521-706 R662A) above, with A142R, D178A counted along it
Chain of rbHCN4 ΔDE (1-718) (Q9TV66 1-718, stated change not applied): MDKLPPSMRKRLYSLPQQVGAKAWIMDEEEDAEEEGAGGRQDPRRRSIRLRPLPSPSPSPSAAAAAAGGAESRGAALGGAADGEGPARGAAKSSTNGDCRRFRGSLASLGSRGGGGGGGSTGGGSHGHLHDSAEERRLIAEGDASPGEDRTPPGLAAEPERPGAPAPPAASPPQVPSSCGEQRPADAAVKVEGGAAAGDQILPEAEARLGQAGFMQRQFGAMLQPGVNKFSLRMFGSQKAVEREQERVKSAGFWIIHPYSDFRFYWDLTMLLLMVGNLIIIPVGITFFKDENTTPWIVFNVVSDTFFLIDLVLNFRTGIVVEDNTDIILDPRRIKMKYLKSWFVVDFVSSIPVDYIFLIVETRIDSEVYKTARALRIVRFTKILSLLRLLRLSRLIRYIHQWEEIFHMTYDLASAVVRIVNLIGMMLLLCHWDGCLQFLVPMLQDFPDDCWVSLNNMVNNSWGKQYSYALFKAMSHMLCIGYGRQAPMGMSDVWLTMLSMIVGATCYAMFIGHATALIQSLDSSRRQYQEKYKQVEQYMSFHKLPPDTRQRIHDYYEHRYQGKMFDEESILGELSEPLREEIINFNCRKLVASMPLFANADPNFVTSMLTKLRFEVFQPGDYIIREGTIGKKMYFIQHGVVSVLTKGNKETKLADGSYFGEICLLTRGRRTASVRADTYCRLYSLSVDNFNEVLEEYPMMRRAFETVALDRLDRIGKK

For `Nc1ncnc2c1ncn2[C@@H]1O[C@@H]2COP(=O)(O)O[C@H]2[C@H]1O` [cAMP, Adenosine 3′,5′-cyclic monophosphate], the Kd (human HCN2 CNBD ΔDE) is given as 9.5 ± 0.7 µM, the Kd ([1]; read-out: binding affinity, higher affinity, protein at ~100uM or greater, predominantly tetramers) is given as 0.12 µM and the Kd ([1]; read-out: binding affinity, lower affinity, protein at ~100uM or greater, predominantly tetramers) is given as 1.5 µM. For the same molecule, the Kd ([1]; read-out: binding affinity, single lower affinity, first two helices of the C-linker removed, monomeric protein) was about 1.8 µM, the Kd ([1]; read-out: binding affinity, single lower affinity, lower protein concentrations, tetramers less frequent) was about 1.5 µM and the “V1/2 with cAMP” value (rbHCN4 ΔDE’ (1-723); [6]) was -95.5 ± 0.8 mV. The “k (inverse slope factor) with cAMP” value (rbHCN4 ΔDE’ (1-723); 5 µM cAMP, mean ± SEM) was 8.4 ± 0.1 mV, the “Hill coefficient (nH)” value (rbHCN4 ΔDE’ (1-723); [7]) was 1 and the “V1/2 with cAMP” value (rbHCN4 D750A; [6]) was -96 ±1.7 mV. The “k (inverse slope factor) with cAMP” value (rbHCN4 D750A; 5 µM cAMP, mean ± SEM) was 9 ± 0.5 mV, the “Hill coefficient (nH)” value (rbHCN4 D750A; [7]) was 0.8 and the EC50 [2] was 0.2 µM. The Kd (human HCN2 CNBD ΔDE’; cAMP titrated into 20 µM CNBD, 25 °C, mean ± SEM, n = 3) was 1.2 ± 0.03 µM, the Kd (human HCN2 CNBD ΔDE’; representative sample (Fig. 2d), cAMP titrant, single ITC experiment) was 1.2 µM and the “stoichiometry (N)” value (human HCN2 CNBD ΔDE’; cAMP titrant, mean ± SEM, n = 3) was 0.8 ± 0.1. For the same molecule, the “V1/2 with cAMP” value (rbHCN4 ΔC-term (1-758); 1 µM cAMP in pipette) was -88.9 ± 1.5 mV, the “k (inverse slope factor) with cAMP” value (rbHCN4 ΔC-term (1-758); 1 µM cAMP) was 9.6 ± 0.5 mV and the EC50 (HCN4; ref Baruscotti et al, 2017) was 1.67 µM. For the same molecule, the EC50 (HCN4; ref Milanesi et al, 2006) was 1.53 µM, the EC50 (HCN4; ref Moller et al 2014) was 0.82 µM and the “stoichiometry (N)” value (hHCN2 CNBD R662A [3]; mean ± SEM, n = 3) was 0.9 ± 0.1. For the same molecule, the “N, representative sample (Fig. 4d)” value (hHCN2 CNBD R662A [3]; single ITC experiment) was 0.7, the “V1/2 with cAMP” value (rbHCN4 ΔDE (1-718); [6]) was -102.4± 0.6 mV and the “k (inverse slope factor) with cAMP” value (rbHCN4 ΔDE (1-718); 5 µM cAMP, mean ± SEM) was 7.6 ± 0.3 mV. The “Hill coefficient (nH)” value (rbHCN4 ΔDE (1-718); [7]) was 1, the Kd (hHCN2 CNBD D698A; [8]) was 1.7 µM and 1.6 µM and 1.3 µM and the Kd (hHCN2 CNBD D698A; [9]) was 1.5 ± 0.1 µM. The Kd (hHCN2 CNBD D698A; KD, representative sample (Fig. 4d), cAMP titrant, single ITC experiment) was 1 µM, the Kd (hHCN2 CNBD R662A [4]; [8]) was 1.08 µM and 0.98 µM and 1.1 µM and the Kd (hHCN2 CNBD R662A [4]; [9]) was 1 ± 0.03 µM. For the same molecule, the Kd (human HCN2 CNBD ΔE; KD, cAMP titrated into 20 µM CNBD, 25 °C) was 1.2 ± 0.1 µM, the “stoichiometry (N)” value (human HCN2 CNBD ΔE; cAMP titrant) was 1.0 ± 0.1 and the EC50 [5] was 0.24 µM.
